Measured values: patent US11780845B2 (Relay Therapeutics, Inc., priority 2019, dated 2023)

Legend:
SNU16 cells = assay: SNU16 Cancer Cell Line Proliferation Assay; assay type: cell-based; conditions: Homo sapiens; SNU-16 cells
Method in brief: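 SNU16 cells were seeded, held 24 h at 37 degrees, then dosed with an 11-point 3-fold dilution series prepared from a 10 mM DMSO stock. After 96 h incubation, viability was read by CellTiter Glo luminescence.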

FGFR2 = FGFR2 (Homo sapiens (Human), UniProt P21802); assay: FGFR2 Biochemical Caliper Assay
Method: Compounds of the present invention were also tested in a FGFR2 Biochemical Caliper Assay. Compounds were prepared in 10 mM DMSO solution and serially diluted into 11 concentrations by 3-fold dilution. […] 5 uL of ATP solution (100 uM) was added to start the reaction and the plate was incubated for 90 minutes, then 70 uL of stopping buffer (0.5M EDTA) was added to terminate the reaction. Each well was analyzed using EZ reader.

Chain of FGFR2 (P21802 22-821): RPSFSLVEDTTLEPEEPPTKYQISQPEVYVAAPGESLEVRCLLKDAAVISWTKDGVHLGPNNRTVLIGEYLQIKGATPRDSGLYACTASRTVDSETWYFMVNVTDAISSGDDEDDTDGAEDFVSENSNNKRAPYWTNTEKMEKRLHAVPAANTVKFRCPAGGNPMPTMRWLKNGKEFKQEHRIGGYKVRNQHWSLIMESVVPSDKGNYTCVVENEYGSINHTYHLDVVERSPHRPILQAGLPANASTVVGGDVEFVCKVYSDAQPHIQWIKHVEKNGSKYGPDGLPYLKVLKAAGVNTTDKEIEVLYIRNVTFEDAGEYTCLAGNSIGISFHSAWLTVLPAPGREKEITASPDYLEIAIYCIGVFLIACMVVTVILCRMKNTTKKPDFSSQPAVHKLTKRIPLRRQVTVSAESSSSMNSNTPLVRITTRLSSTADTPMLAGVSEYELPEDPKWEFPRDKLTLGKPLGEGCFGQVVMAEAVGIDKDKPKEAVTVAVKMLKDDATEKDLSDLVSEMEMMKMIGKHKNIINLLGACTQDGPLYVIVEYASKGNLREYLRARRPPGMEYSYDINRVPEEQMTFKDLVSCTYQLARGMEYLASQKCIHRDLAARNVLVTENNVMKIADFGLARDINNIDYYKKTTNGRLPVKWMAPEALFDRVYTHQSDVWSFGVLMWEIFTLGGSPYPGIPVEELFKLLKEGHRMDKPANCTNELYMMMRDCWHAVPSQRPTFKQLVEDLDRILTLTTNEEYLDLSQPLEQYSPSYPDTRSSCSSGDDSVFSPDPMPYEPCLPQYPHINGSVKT

Row | SMILES | IC50 (SNU16 cells) | IC50 (FGFR2)
1 | C=C(C)C(=O)Nc1ccc(-c2c(C3=C(F)CC(C(=O)N4CCCC4)CC3)c3c(N)ncnc3n2C)cc1 (stereo not shown) [Example 601] | 0.25 to 1 µM | 1 to 100 µM
2 | CCC(=O)N1CCC(n2cc(-c3c(-c4ccc(Oc5ccccc5)cc4)c4c(N)ncnc4n3C)cn2)CC1 [Example 617] | 0.25 to 1 µM | 0.1 to 0.25 µM
3 | C=CC(=O)N1CCC(c2c(-c3ccc(Oc4cccc(C)n4)c(OC)c3)c3c(N)ncnc3n2C)CC1 [Example 619] | 0.1 to 0.25 µM | 0.1 to 0.25 µM
4 | C=C(C)C(=O)N1CCC(n2cc(-c3c(-c4ccc(Oc5cccc(C)n5)cc4)c4c(N)ncnc4n3C)cn2)CC1 [Example 622] | 1 to 100 µM | 0.25 to 1 µM
5 | C=CC(=O)NC1CC=C(c2c(-c3ccc(Oc4cccc(C)n4)c(OC)c3)c3c(N)ncnc3n2C)CC1 (stereo not shown) [Example 623] | 0.1 to 0.25 µM | 0.1 to 0.25 µM
6 | C=CC(=O)N1CCCC(n2cc(-c3c(-c4ccc(Oc5ccccc5)cc4)c4c(N)ncnc4n3C)cn2)C1C (stereo not shown) [Example 626] | 0.25 to 1 µM | 0.1 to 0.25 µM
7 | C=CC(=O)N(C)C1CC(n2cc(-c3c(-c4ccc(Oc5cccc(C)n5)cc4)c4c(N)ncnc4n3C)cn2)C1 (stereo not shown) [Example 628] | ≤ 0.1 µM | < 0.1 µM
8 | C=CC(=O)N1CCCC(n2cc(-c3c(-c4ccc(Oc5cccc(C)n5)cc4)c4c(N)ncnc4n3C)cn2)C1 (stereo not shown) [Example 629] | ≤ 0.1 µM | < 0.1 µM
9 | C=CC(=O)N1CCC(n2cc(-c3c(-c4ccc(Oc5cccc(C)n5)cc4)c4c(N)ncnc4n3C)cn2)C1 (stereo not shown) [Example 630] | ≤ 0.1 µM | < 0.1 µM
10 | C=CC(=O)N1CCC(n2cc(-c3c(-c4ccc(Oc5cc(C)ccn5)cc4)c4c(N)ncnc4n3C)cn2)CC1 [Example 631] | 0.1 to 0.25 µM | 0.1 to 0.25 µM
11 | C=CC(=O)N1CCC(n2cc(-c3c(-c4ccc(Oc5cccc(C)n5)cc4)c4c(N)ncnc4n3C)c(C)n2)CC1 [Example 632] | ≤ 0.1 µM | < 0.1 µM
12 | C=CC(=O)N1CCC(n2cc(-c3c(-c4ccc(Oc5ncccn5)cc4)c4c(N)ncnc4n3C)cn2)CC1 [Example 633] | 0.1 to 0.25 µM | 0.1 to 0.25 µM
13 | C=CC(=O)N1CCC(n2cc(-c3c(-c4ccc(Oc5cccc(F)n5)cc4)c4c(N)ncnc4n3C)cn2)CC1 [Example 634] | ≤ 0.1 µM | < 0.1 µM
14 | CC#CC(=O)N1CCC(n2cc(-c3c(-c4ccc(Oc5cccc(C)n5)cc4)c4c(N)ncnc4n3C)cn2)C1 (stereo not shown) [Example 635] | ≤ 0.1 µM | 0.1 to 0.25 µM
15 | C=CC(=O)N1CCC(n2cc(-c3c(-c4ccc(Oc5ccc(C)cn5)cc4)c4c(N)ncnc4n3C)cn2)CC1 [Example 636] | ≤ 0.1 µM | 0.1 to 0.25 µM

Results, then the molecule that gave them:

Row | IC50 (SNU16 cells) | IC50 (FGFR2) | SMILES
16 | ≤ 0.1 µM | < 0.1 µM | C=CC(=O)N1CCC(n2cc(-c3c(-c4ccc(Oc5ccccc5)cc4)c4c(N)ncnc4n3C)cn2)CC1 [Example 602]
17 | ≤ 0.1 µM | < 0.1 µM | C=CC(=O)N1CC=C(c2c(-c3ccc(Oc4ccccc4)cc3)c3c(N)ncnc3n2C)CC1 [Example 603]
18 | ≤ 0.1 µM | < 0.1 µM | C=CC(=O)N1CCC(n2cc(-c3c(-c4ccc(Oc5ccccc5)cc4)c4c(N)ncnc4n3C)cn2)C(O)C1 (stereo not shown) [Example 607]
19 | ≤ 0.1 µM | < 0.1 µM | C=CC(=O)N1CCC(n2cc(-c3c(-c4ccc(Oc5cccc(C)n5)cc4)c4c(N)ncnc4n3C)cn2)CC1 [Example 608]
20 | ≤ 0.1 µM | < 0.1 µM | C=CC(=O)N1CCC(n2cc(-c3c(-c4ccc(OC)cc4)c4c(N)ncnc4n3C)cn2)CC1 [Example 618]
21 | ≤ 0.1 µM | < 0.1 µM | C=CC(=O)N1CC=C(c2c(-c3ccc(Oc4cccc(C)n4)c(OC)c3)c3c(N)ncnc3n2C)CC1 [Example 620]
22 | ≤ 0.1 µM | < 0.1 µM | Cc1cccc(Oc2ccc(-c3c(-c4cnn(C5CCN(C(=O)/C=C/CN(C)C)CC5)c4)n(C)c4ncnc(N)c34)cc2)n1 [Example 621]
23 | ≤ 0.1 µM | < 0.1 µM | C=CC(=O)N1CCCC(n2cc(-c3c(-c4ccc(Oc5cccc(C)n5)cc4)c4c(N)ncnc4n3C)cn2)C1C (stereo not shown) [Example 627]
